One assay has as its target human α1β3γ2 receptors (Homo sapiens (Human), UniProt P14867+P18507). Kind of assay: 3H-flunitrazepam competition binding, human α1β3γ2 GABAA receptor. To be noted: HEK293 cell membranes, 1 nM 3H-flunitrazepam; read-out: Ki α1. Here is the method: (§1) The affinity of the compound to each subtype of GABAA receptor was determined by competing for the binding of ^3H-flunitrazepam to HEK293 cells stably expressing human α1β3γ2, α2β3γ2, α3β3γ2, and α5β3γ2 receptors.
(§2) The cells were suspended in 50 mM Tris-HCl buffer (pH=7.4), homogenized 10 times on ice with a homogenizer for 20 seconds, and centrifuged at 1000 g for 10 minutes at 4° C. The supernatant was collected, and the above steps were repeated. The supernatant was centrifuged at 4° C. (33800 g; Thermo, rotor: A27-8×50) for 60 minutes, and the precipitate was resuspended in Tris buffer (50 mM Tris-HCl, 10 mM MgCl2, 0.5 mM EDTA, 10% glycerol). Protein was measured (BCA method, Pierce), and 1 mL aliquots were prepared and stored at −80° C.
(§3) The radioligand competition binding assay was performed in a 200 μL system (96-well plate) containing 100 μL of cell membrane. The concentration of ^3H-flunitrazepam was 1 nM and the concentration of the test compound was in the range of […]. Flumazenil was used as a control. 1 μL of 2 mM flumazenil (final concentration […]) was added to the low signal control well (Low control, LC), and 1 μL of DMSO was added to the high signal control well (High control, HC). The final concentration of target membrane protein was […]. All test compound sample storage solutions were 10 mM. The working concentration of the samples was to dilute all the samples to 0.2 mM with DMSO, followed by 4-fold serial gradient dilutions for a total of 8 concentration gradients. The 96-well plate was sealed with a sealing film, and then incubated on a shaker at room temperature for 1 hour. At the same time, the GF/C filter plate was soaked in soaking buffer (0.3% PEI, stored at 4° C.) for at least 0.5 hours. After the binding incubation was completed, the cells were collected onto a GF/C filter plate using a cell harvester. The plate was washed four times with washing buffer (50 mM Tris-HCl, pH 7.4, stored at 4° C.). After drying in a 50° C. oven for 1 hour, the bottom of the dried GF/C filter plate was sealed. The residual radioactivity on the filter membrane was detected using liquid scintillation counting. 50 μL of scintillation fluid was added to each well, and the plate was sealed. The readings were taken using a Microbeta2. The inhibitory activity of the test sample on the binding of ^3H-flunitrazepam to GABAA receptor membrane proteins was calculated, and the IC50 of each test sample was calculated by dose-effect curve fitting (GraphPad Prism 5 software), and the Ki of the sample was calculated from the IC50, thus evaluating the binding ability of the sample to the various subtypes of GABAA receptors.

Assay [1] concerns the target human α5β3γ2 receptors (α5-GABAA receptor) (Homo sapiens (Human), UniProt P18507+P31644). Briefly: 3H-flunitrazepam competition binding, human α5β3γ2 GABAA receptor. To be noted: HEK293 cell membranes, 1 nM 3H-flunitrazepam; read-out: α5-GABAAR Ki. A digest of the protocol:
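HEK293 membranes stably expressing each human receptor subtype ([…]) competed against 1 nM 3H-flunitrazepam in Tris buffer, 1 h at room temperature; flumazenil defined the low-signal control. Eight-point 4-fold test-compound dilutions; GF/C filtration and scintillation counting gave IC50 by curve fitting, converted to Ki.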

A further assay has as its target human α2β3γ2 receptors (Homo sapiens (Human), UniProt P18507+P47869). Briefly: 3H-flunitrazepam competition binding, human α2β3γ2 GABAA receptor. To be noted: HEK293 cell membranes, 1 nM 3H-flunitrazepam; read-out: Ki α2. Here is the method: as §1, §2, §3
Another assay addresses human α3β3γ2 receptors (Homo sapiens (Human), UniProt P18507+P34903). Kind of assay: 3H-flunitrazepam competition binding, human α3β3γ2 GABAA receptor. As to conditions: HEK293 cell membranes, 1 nM 3H-flunitrazepam; read-out: Ki α3. Here is the method: as §1, §2, §3
The target of assay [2] is α5-GABAA receptor (α5, β3, γ2 subunits) (Homo sapiens (Human), UniProt P18507+P31644). Kind of assay: Whole cell patch clamp, inverse agonist efficacy in HEK293 cells expressing α5-GABAA receptor. Type of assay: cell-based. To be noted: GABA 0.05 μM, −60 mV; for inhibition at 0.1 µM: HEK293, drug 100 nM, read-out: Compound inverse agonist efficacy %. A digest of the protocol: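 Stable HEK293 line co-expressing human α5, β3, γ2 subunits; whole-cell patch clamp at −60 mV, inward current evoked by 0.05 μM GABA, then compound at 100 nM in GABA solution applied. Effect derived from leak, pre- and post-drug GABA currents.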

Each structure is given as a SMILES string.

With `Cc1nnn(-c2ccc(C(F)F)cc2)c1COc1ccc(N2CC(=O)N3CCOC[C@H]3C2)nn1` [Example 173, (R)-8-(6-((1-(4-(Difluoromethyl)phenyl)-4-methyl-1H-1,2,3-triazol-5-yl)methoxy)pyridazin-3-yl)hexahydropyrazino[2,1-c][1,4]oxazin-6(1H)-one], the Ki on human α1β3γ2 receptors turned out to be 0.0806 µM; in assay [1], 0.00055 µM; on human α2β3γ2 receptors, 0.0168 µM; on human α3β3γ2 receptors it was 0.0141 µM. Moreover, in assay [2], the inhibition at 0.1 µM was found to be 50.8%.
The corresponding values for `Cc1nnn(-c2ccc(C(F)F)cc2)c1COc1ccc(N2CCN3CCNC(=O)[C@H]3C2)nn1` [Example 55, (R)-8-(6-((1-(4-(Difluoromethyl)phenyl)-4-methyl-1H-1,2,3-triazol-5-yl)methoxy)pyridazin-3-yl)hexahydro-2H-pyrazino[1,2-a]pyrazin-1(6H)-one] are 0.178 µM, 0.00039 µM, 0.0564 µM, 0.0275 µM and 51.6%.
On the same counts, the results for `Cc1nnn(-c2ccc(C(F)F)cc2)c1COc1ccc(N2CCN3c4ccccc4NC(=O)[C@@H]3C2)nn1` [Example 122, (S)-3-(6-((1-(4-(Difluoromethyl)phenyl)-4-methyl-1H-1,2,3-triazol-5-yl)methoxy)pyridazin-3-yl)-2,trans-3,4,4a-tetrahydro-1H-pyrazino[1,2-a]quinoxalin-5(6H)-one] are 0.266 µM, 0.00246 µM, 0.149 µM, 0.0673 µM and 48.7%.
Turning to `Cc1nnn(-c2ccc(C(F)F)cc2)c1COc1ccc(N2CC(=O)NC3(CC3)C2)nn1` [Example 8, 7-(6-((1-(4-(Difluoromethyl)phenyl)-4-methyl-1H-1,2,3-triazol-5-yl)methoxy)pyridazin-3-yl)-4,7-diazaspiro[2.5]octan-5-one], the Ki at human α1β3γ2 receptors stood at 0.0805 µM; in assay [1], 0.00089 µM; at human α2β3γ2 receptors, 0.0222 µM; at human α3β3γ2 receptors, 0.017 µM. Also, the inhibition at 0.1 µM in assay [2] was 40.4%.
On the same counts, the results for `Cc1nnn(-c2ccc(F)cc2)c1COc1ccc(N2CCNC(=O)C2)nn1` [Example 76, 4-(6-((1-(4-Fluorophenyl)-4-methyl-1H-1,2,3-triazol-5-yl)methoxy)pyridazin-3-yl)piperazin-2-one] are 0.832 µM, 0.00287 µM, 0.301 µM, 0.173 µM and 45.3%.
On the same counts, the results for `Cc1nnn(-c2ccc(C(F)F)cc2)c1COc1ccc(N2CCNC(=O)C2)nn1` [Example 2, 4-(6-((1-(4-(Difluoromethyl)phenyl)-4-methyl-1H-1,2,3-triazol-5-yl)methoxy)pyridazin-3-yl)piperazin-2-one] are 0.145 µM, 0.00215 µM, 0.0198 µM, 0.0286 µM and 58.8%.
On the same counts, the results for `Cc1nnn(-c2ccc(C(F)F)cc2)c1COc1ccc(N2CC(=O)NC(=O)C2)nn1` [Example 5, 4-(6-((1-(4-(Difluoromethyl)phenyl)-4-methyl-1H-1,2,3-triazol-5-yl)methoxy)pyridazin-3-yl)piperazine-2,6-dione] are 0.0581 µM, 0.00096 µM, 0.0129 µM, 0.0168 µM and 54.5%.
As to `Cc1nnn(-c2ccc(C(F)F)cc2)c1COc1ccc(N2CCN3CCN(C4CC4)C(=O)[C@@H]3C2)nn1` [Example 148, (S)-2-Cyclopropyl-8-(6-((1-(4-(difluoromethyl)phenyl)-4-methyl-1H-1,2,3-triazol-5-yl)methoxy)pyridazin-3-yl)hexahydro-2H-pyrazino[1,2-a]pyrazin-1(6H)-one], the Ki came to 0.445 µM on human α1β3γ2 receptors, 0.0025 µM in assay [1], 0.117 µM on human α2β3γ2 receptors and 0.0562 µM at human α3β3γ2 receptors. Besides, in assay [2], the inhibition at 0.1 µM worked out at 42.6%.
On the same counts, the results for `Cc1nnn(-c2ccc(C(F)F)cc2)c1COc1ccc(N2CC(=O)N3CCNCC3C2)nn1` (stereo not drawn) [Example 68, 2-(6-((1-(4-(Difluoromethyl)phenyl)-4-methyl-1H-1,2,3-triazol-5-yl)methoxy)pyridazin-3-yl)hexahydro-1H-pyrazino[1,2-a]pyrazin-4-(6H)-one] are 0.0569 µM, 0.00084 µM, 0.0171 µM, 0.014 µM and 50.5%.
The corresponding values for `Cc1nnn(-c2ccc(C(F)F)cc2)c1COc1ccc(N2CCNC2=O)nn1` [Example 19, 1-(6-((1-(4-(Difluoromethyl)phenyl)-4-methyl-1H-1,2,3-triazol-5-yl)methoxy)pyridazin-3-yl)imidazolidin-2-one] are 0.0158 µM, 0.00052 µM, 0.0104 µM, 0.00734 µM and 53.7%.
On the same counts, the results for `Cc1nnn(-c2ccc(C(F)F)cc2)c1COc1ccc(N2CCN3CCNC(=O)[C@@H]3C2)nn1` [Example 54, (S)-8-(6-((1-(4-(Difluoromethyl)phenyl)-4-methyl-1H-1,2,3-triazol-5-yl)methoxy)pyridazin-3-yl)hexahydro-2H-pyrazino[1,2-a]pyrazin-1(6H)-one] are 0.294 µM, 0.00255 µM, 0.0716 µM, 0.0498 µM and 50.9%.
Turning to `Cc1ccc(-n2nnc(C)c2COc2ccc(N3CCN4CCNC(=O)[C@@H]4C3)nn2)cc1` [Example 129, (S)-8-(6-((4-Methyl-1-(p-tolyl)-1H-1,2,3-triazol-5-yl)methoxy)pyridazin-3-yl)octahydro-1H-pyrazino[1,2-a]pyrazin-1-one], the Ki came out at 0.911 µM on human α1β3γ2 receptors, 0.00975 µM in assay [1], 0.168 µM on human α2β3γ2 receptors and 0.195 µM on human α3β3γ2 receptors. In assay [2], the inhibition at 0.1 µM was found to be 56.3%.
On the same counts, the results for `Cc1nnn(-c2ccc(C(F)F)cc2)c1COc1ccc(N2C[C@H]3C[C@@H]2C(=O)N3)nn1` [Example 116, (1R,4R)-5-(6-((1-(4-(Difluoromethyl)phenyl)-4-methyl-1H-1,2,3-triazol-5-yl)methoxy)pyridazin-3-yl)-2,5-diazabicyclo[2.2.1]heptan-3-one] are 0.0652 µM, 0.00166 µM, 0.0501 µM, 0.0227 µM and 48.4%.
On to `Cc1nnn(-c2ccc(C(F)F)cc2)c1COc1ccc(N2CCN3CC(C4CC4)NC(=O)[C@@H]3C2)nn1` (single isomer, unassigned) [Example 204], for which the Ki worked out at 0.158 µM on human α1β3γ2 receptors, 0.00231 µM in assay [1], 0.0701 µM on human α2β3γ2 receptors and 0.0503 µM on human α3β3γ2 receptors. The “Compound inverse agonist efficacy %” value in assay [2] (drug 100 nM) is recorded as −68.71%.
In the case of `CCNC(=O)C1CN(c2ccc(OCc3c(C)nnn3-c3ccc(C(F)F)cc3)nn2)C1` [Example 43, 1-(6-[(1-(4-(Difluoromethyl)phenyl)-4-methyl-1H-1,2,3-triazol-5-yl)methoxy]pyridazin-3-yl)-N-ethylazetidine-3-carboxamide], the Ki came to 0.149 µM on human α1β3γ2 receptors, 0.00449 µM in assay [1], 0.0727 µM on human α2β3γ2 receptors and 0.0185 µM on human α3β3γ2 receptors. Further, the inhibition at 0.1 µM in assay [2] stood at 52.2%.

What is called Ki is a measure of affinity in units of concentration, obtained from inhibition or displacement.
